# Experimental data from US20080275224A1, “Cyanoborate, Fluoroalkylphosphate, Fluoroalkylborate or Imide Dyes” (priority 2003, published 2008).
# Columns and labels:
# [1] = Solubility in organic solvents (statements in the description)
# [2] = Solubility investigations of the dyes prepared in accordance with Examples 31 to 34
# physchem = settings: water
# [3] = acetonitrile, organic solvent or mixture, Solubility, CH3CN
# [4] = dichloromethane, organic solvent or mixture, Solubility, CH2Cl2
# [5] = ethanol, organic solvent or mixture, Solubility
smiles,measurement,setting,value
CC[N+](CC)=c1ccc2nc3c(cc(N)c4ccccc43)oc-2c1 [Nile Blue [(CF3SO2)2N]^−],Solubility in benzene,[1]; listed as Nile Blue Im,soluble
same,Solubility in dimethyl carbonate,[1]; listed as Nile Blue Im,readily or very readily soluble
"CC[N+](CC)=c1ccc2nc3c(cc(N)c4ccccc43)oc-2c1 [Nile Blue Hydrogensulfate anion, Nile Blue hydrogensulfate, reference compound]",Solubility in benzene,[1],insoluble
same,Solubility in dimethyl carbonate,[1]; listed as Nile Blue with hydrogensulfate as anion,insoluble
"CCN(CC)c1ccc2nc3ccc(N=Nc4ccc(N(C)C)cc4)cc3[n+](-c3ccccc3)c2c1.[Cl-] [Janus Green Cl^−, Janus Green, reference compound]",Solubility in benzene,[1],insoluble
CC[N+](CC)=c1ccc2nc3c(cc(N)c4ccccc43)oc-2c1 [Nile Blue [(C2F5)3PF3]^−] [Nile Blue as tris(pentafluoroethyl)trifluorophosphate],Solubility in benzene,[1]; listed as Nile Blue FAP,soluble
same,Solubility in dimethyl carbonate,[1]; listed as Nile Blue FAP,readily or very readily soluble
"CC[N+](CC)=c1ccc2nc3c(cc(N)c4ccccc43)oc-2c1 [Nile Blue [B(CN)4]^−, Nile Blue as tetracyanoborate]",Solubility in benzene,[1]; listed as Nile Blue CAB,soluble
same,Solubility in dimethyl carbonate,[1]; listed as Nile Blue CAB,readily or very readily soluble
"CC[N+](CC)=c1ccc2nc3c(cc(N)c4ccccc43)oc-2c1 [Nile Blue [B(CF3)4]^−, Nile Blue as tetrakis(trifluoromethyl)borate]",Solubility in benzene,[1]; listed as Nile Blue FAB,soluble
same,Solubility in dimethyl carbonate,[1]; listed as Nile Blue FAB,readily or very readily soluble
same,solubility,[2]; Pentane,insoluble
same,solubility,[2]; [3],> 2000 µg/mL
same,solubility,[2]; [4],> 5000 µg/mL
same,solubility,[2]; [5],> 3000 µg/mL
same,solubility,"[2]; water, Solubility, H2O",< 10 µg/mL
"CN(C)c1ccc(C(=C2C=CC(=[N+](C)C)C=C2)c2ccc(N(C)C)cc2)cc1 [Crystal Violet [B(CF3)4]^−, Crystal Violet as tetrakis(trifluoromethyl)borate]",solubility,[2]; H2O,insoluble
same,solubility,[2]; Pentane,insoluble
same,solubility,[2]; [3],> 5000 µg/mL
same,solubility,[2]; [4],> 10000 µg/mL
same,solubility,[2]; [5],> 10000 µg/mL
"Cc1cc2nc3cc(C)c(N)cc3[n+](-c3ccccc3)c2cc1N [Safranine O [B(CF3)4]^−, safranine O as tetrakis(trifluoromethyl)borate]",solubility,physchem,< 10 µg/mL
CCN(CC)c1ccc2nc3ccc(/N=N/c4ccc(N(C)C)cc4)cc3[n+](-c3ccccc3)c2c1 [Janus Green [(CF3SO2)2N]^−],Solubility in benzene,[1],soluble
